In paper PMC11089204 (Frontiers in Pharmacology, 2024):

Legend:
Assay type in all cases: in vitro ADME
[1] = biological target: T1, recombinant CYP1A2 (Homo sapiens, UniProt P05177); experiment: Incubation with recombinant CYP1A2 enzymes; conditions: 1,000 nM psilocin, rec. CYP1A2
T1 construct: purchased Corning Life Sciences B.V
Method: (§1) Corning UltraPool human liver microsomes (HLM) 150 (20 mg/mL), human intestinal microsomes (HIM) pool (10 mg/mL) as well as recombinant human CYP enzymes (with P450 oxidoreductase, OR) including CYP1A2+OR (0.5 nmol), CYP2B6+OR (0.5 nmol), CYP2C8+OR (1.0 nmol), CYP2C9*1+OR (1 nmol), CYP2C19+OR (0.5 nmol), CYP2D6*1+OR (0.5 nmol), CYP2E1+OR + cytochrome b5 (1 nmol), CYP3A4+OR + cytochrome b5 (0.5 nmol), MAO-A (5 mg/mL), MAO-B (5 mg/mL), and UGT1A10 (5 mg/mL) were purchased from Corning Life Sciences B.V (Amsterdam, Netherlands). All microsomes and recombinant enzyme solutions were aliquoted and stored at −80 °C until further use.
(§2) The total volume of the reaction mixture was 500 μL. […] Samples were either directly analyzed by liquid chromatography tandem mass spectrometry (LC-MS/MS) or briefly stored at −20°C until analysis.

[2] = biological target: T2, recombinant CYP2B6 (Homo sapiens, UniProt P20813); experiment: Incubation with recombinant CYP2B6 enzymes; conditions: 1,000 nM psilocin, rec. CYP2B6
T2 construct: purchased Corning Life Sciences B.V
T2 sequence (P20813 whole entry): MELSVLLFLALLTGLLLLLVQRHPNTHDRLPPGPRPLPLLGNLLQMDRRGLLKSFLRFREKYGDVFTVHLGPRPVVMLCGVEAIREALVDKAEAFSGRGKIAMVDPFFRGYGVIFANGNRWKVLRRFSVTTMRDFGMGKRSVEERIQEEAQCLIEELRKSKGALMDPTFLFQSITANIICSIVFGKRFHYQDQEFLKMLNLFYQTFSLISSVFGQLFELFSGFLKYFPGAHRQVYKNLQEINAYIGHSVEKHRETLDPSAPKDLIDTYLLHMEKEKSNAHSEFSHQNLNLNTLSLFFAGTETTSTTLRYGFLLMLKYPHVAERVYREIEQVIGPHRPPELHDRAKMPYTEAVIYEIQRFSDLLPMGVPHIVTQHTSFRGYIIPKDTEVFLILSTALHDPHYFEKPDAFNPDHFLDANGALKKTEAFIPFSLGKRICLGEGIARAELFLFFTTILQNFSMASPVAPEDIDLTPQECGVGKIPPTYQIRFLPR
Method: as §1, §2

[3] = biological target: T3, recombinant CYP2C8 (Homo sapiens, UniProt P10632); experiment: Incubation with recombinant CYP2C8 enzymes; conditions: 1,000 nM psilocin, rec. CYP2C8
T3 construct: purchased Corning Life Sciences B.V
T3 sequence (P10632 whole entry): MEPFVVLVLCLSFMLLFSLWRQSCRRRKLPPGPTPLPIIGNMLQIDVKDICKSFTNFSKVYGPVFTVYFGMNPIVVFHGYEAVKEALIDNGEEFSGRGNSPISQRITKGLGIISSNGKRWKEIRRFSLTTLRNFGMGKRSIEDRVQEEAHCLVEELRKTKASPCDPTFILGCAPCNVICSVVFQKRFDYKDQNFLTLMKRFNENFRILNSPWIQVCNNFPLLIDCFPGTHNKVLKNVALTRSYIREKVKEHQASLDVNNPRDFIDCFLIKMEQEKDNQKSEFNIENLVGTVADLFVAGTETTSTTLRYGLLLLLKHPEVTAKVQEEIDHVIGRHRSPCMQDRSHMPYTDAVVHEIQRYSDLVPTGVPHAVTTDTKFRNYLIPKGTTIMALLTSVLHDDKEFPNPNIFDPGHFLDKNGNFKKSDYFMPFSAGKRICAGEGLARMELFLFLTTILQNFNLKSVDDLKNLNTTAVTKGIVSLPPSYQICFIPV
Method: as §1, §2

[4] = biological target: T4, recombinant CYP2C9 (Homo sapiens, UniProt P11712); experiment: Incubation with recombinant CYP2C9 enzymes; conditions: 1,000 nM psilocin, rec. CYP2C9
T4 construct: purchased Corning Life Sciences B.V
T4 sequence (P11712 whole entry): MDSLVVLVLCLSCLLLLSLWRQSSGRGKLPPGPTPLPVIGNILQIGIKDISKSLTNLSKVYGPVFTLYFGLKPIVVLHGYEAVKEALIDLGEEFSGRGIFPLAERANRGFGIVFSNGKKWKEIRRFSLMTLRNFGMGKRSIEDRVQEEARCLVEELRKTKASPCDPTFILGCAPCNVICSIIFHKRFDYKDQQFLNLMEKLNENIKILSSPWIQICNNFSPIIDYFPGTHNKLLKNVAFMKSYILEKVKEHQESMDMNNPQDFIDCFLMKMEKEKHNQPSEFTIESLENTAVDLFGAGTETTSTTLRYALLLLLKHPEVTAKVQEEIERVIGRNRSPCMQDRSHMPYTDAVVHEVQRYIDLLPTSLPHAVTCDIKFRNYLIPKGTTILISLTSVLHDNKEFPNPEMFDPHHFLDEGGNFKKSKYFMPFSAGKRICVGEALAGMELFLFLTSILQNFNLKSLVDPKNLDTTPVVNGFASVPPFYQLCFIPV
Method: as §1, §2

[5] = biological target: T5, recombinant CYP2E1 (Homo sapiens, UniProt P05181); experiment: Incubation with recombinant CYP2E1 enzymes; conditions: 1,000 nM psilocin, rec. CYP2E1
T5 construct: purchased Corning Life Sciences B.V
T5 sequence (P05181 whole entry): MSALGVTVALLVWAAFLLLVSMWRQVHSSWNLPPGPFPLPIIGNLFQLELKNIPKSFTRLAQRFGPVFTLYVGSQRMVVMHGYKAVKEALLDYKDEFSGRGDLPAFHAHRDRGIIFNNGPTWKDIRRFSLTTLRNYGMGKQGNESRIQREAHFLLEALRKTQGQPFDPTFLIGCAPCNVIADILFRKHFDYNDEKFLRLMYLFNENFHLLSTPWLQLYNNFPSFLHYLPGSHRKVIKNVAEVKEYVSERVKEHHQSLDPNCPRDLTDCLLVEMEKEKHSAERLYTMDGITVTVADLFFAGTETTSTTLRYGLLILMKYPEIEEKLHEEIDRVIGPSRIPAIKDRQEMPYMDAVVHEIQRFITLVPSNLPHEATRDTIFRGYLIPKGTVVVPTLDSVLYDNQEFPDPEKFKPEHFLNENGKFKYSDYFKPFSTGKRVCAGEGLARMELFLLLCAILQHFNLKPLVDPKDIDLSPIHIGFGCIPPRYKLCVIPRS
Method: as §1, §2

[6] = test system: human liver microsomes (HLM); experiment: Glucuronidation with human liver microsomes; conditions: 1,000 nM psilocin with HLM and UGT co-factors
Method: as §1, with “use. Co-factors including NADPH regenerating system solution A (25 mM NADP+, 66 mM glucose-6-phosphate, and 66 mM MgCl2 in water), NADPH regenerating system solution B (40 U/mL glucose-6-phosphate dehydrogenase in 5 mM sodium citrate), UGT reaction mix solution A (25 mM uridine 5′-diphospho-glucuronic acid in water), and UGT reaction mix solution B (250 mM Tris-HCl, 40 mM MgCl2, and 0.125 mg/mL alamethicin in water) were also obtained from Corning Life Sciences B.V.” for “use.”
The assay described in section 2.5.1 was adjusted to suit the glucuronidation system. […] HLM were diluted as described in section 2.5.1, while HIM or UGT1A10 enzymes were diluted 1:40 (end concentration […] and 0.125 mg/mL, respectively) in the reaction mix. […]

[7] = test system: human intestinal microsomes (HIM); experiment: Glucuronidation with human intestinal microsomes; conditions: for psilocin concentration: absence of HIM
Method: as §1, with “use. Co-factors including NADPH regenerating system solution A (25 mM NADP+, 66 mM glucose-6-phosphate, and 66 mM MgCl2 in water), NADPH regenerating system solution B (40 U/mL glucose-6-phosphate dehydrogenase in 5 mM sodium citrate), UGT reaction mix solution A (25 mM uridine 5′-diphospho-glucuronic acid in water), and UGT reaction mix solution B (250 mM Tris-HCl, 40 mM MgCl2, and 0.125 mg/mL alamethicin in water) were also obtained from Corning Life Sciences B.V.” for “use.”
The assay described in section 2.5.1 was adjusted to suit the glucuronidation system. […] HLM were diluted as described in section 2.5.1, while HIM or UGT1A10 enzymes were diluted 1:40 (end concentration […] and 0.125 mg/mL, respectively) in the reaction mix. Sampling time points were adjusted to 0, 15, 30, 60, 90, 120, 180, and 240 min.

T1 sequence (P05177 2-516 limits assumed): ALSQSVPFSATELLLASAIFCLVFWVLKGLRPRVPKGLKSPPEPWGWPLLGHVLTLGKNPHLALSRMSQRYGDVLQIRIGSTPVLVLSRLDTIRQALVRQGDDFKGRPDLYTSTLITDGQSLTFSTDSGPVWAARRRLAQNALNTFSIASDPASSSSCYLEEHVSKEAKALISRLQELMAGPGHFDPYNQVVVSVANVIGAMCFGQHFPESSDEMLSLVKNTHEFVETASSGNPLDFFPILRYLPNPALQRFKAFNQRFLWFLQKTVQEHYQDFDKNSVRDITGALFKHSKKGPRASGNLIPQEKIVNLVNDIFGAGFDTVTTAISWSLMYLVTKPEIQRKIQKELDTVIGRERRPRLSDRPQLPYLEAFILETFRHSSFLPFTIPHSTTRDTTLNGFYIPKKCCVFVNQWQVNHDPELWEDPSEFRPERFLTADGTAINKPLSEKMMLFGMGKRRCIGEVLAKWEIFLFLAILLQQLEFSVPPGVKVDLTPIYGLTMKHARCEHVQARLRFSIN

Question: `CN(C)CCc1c[nH]c2cccc(O)c12` [psilocin, 4-hydroxy-N,N-dimethyltryptamine] was tested. Which metabolism of psilocin [1] did it give?
Answer: did not metabolize

Question: And the metabolism of psilocin [2]?
Answer: did not metabolize

Question: What about the metabolism of psilocin [3] of the same molecule?
Answer: did not metabolize

Question: And the metabolism of psilocin [4]?
Answer: did not metabolize

Question: What about the metabolism of psilocin [5] of the same molecule?
Answer: did not metabolize

Question: What about the glucuronidation of psilocin [6] of the same molecule?
Answer: No glucuronidation was observed

Question: And the “decrease of psilocin concentration through glucuronidation” value ([7]; 1,000 nM psilocin, HIM, 240 min)?
Answer: 37%

Question: What about the “psilocin concentration (mean ± SD)” value ([7]; HIM, t = 0) of the same molecule?
Answer: 1,085 ± 157 nM

Question: What about the “psilocin concentration (mean ± SD)” value ([7]; HIM, t = 240) of the same molecule?
Answer: 684 ± 53 nM

Question: What about the psilocin concentration ([7]; t = 0) of the same molecule?
Answer: 980 ± 77 nM

Question: What about the psilocin concentration ([7]; t = 240) of the same molecule?
Answer: 893 ± 91 nM
